Values of other authors, collected in patent US8748589B2, “Complex crystalline sugar comprising D-psicose and D-allose and process for production of the same” (priority 2005, dated 2014).

Tested on: L-rhamnose isomerase
Conditions: for inhibition of L-rhamnose isomerase activity by coexisting chelating agent: chelating agent present at the time of measurement of the activity

O=C(O)CN(CCN(CC(=O)O)CC(=O)O)CC(=O)O [EDTA]
inhibition of L-rhamnose isomerase activity by coexisting chelating agent: Almost no activity was inhibited

O=C(O)CN(CCOCCOCCN(CC(=O)O)CC(=O)O)CC(=O)O [EGTA]
inhibition of L-rhamnose isomerase activity by coexisting chelating agent: Almost no activity was inhibited

[Co+2] [cobalt ion]
inhibition of L-rhamnose isomerase activity by metal ion (1 mM cobalt ion): About 30%
